Laboratory results: patent publication US20240398899A1 (priority 2021, published 2024)

Tests used:
SH-SY5Y neuronal cells [1] = assay: Cytoprotective effect against MPP+ iodide induced damage, MTT assay; conditions: MPP+ iodide 1 mM
Protocol: The Human Neuronal SH-SY5Y Cells were counted using hemocytometer and plated in 96 well plate at a density of 25,000 cells/well and incubated at 37° C. for 24 h. After incubation, cells were treated with recombinant lectin protein having the sequence of SEQ ID NO: 1 at concentrations ranging from 0.001 μg/ml 50 μg/ml for 24 h. After 24 h of treatment, cells were exposed to neurotoxin (MPP+ iodide, 1 mM) for 24 h. Cells treated with MPP+ iodide alone were included as negative control. Untreated cells were included as control. […] After treatment, the cytoprotective effect of SEQ ID NO: 1 on cell viability was assessed by 3-(4,5-dimethythiazol-2-yl)-2,5-diphenyl tetrazolium bromide (MTT) assay: The plate was taken out and 20 μl of 5 mg/ml of MTT 3-(4,5-dimethythiazol-2-yl)-2,5-diphenyl tetrazolium bromide solution was added to all the wells. The SH-SY5Y cells were incubated for 3 h at 37° C. The supernatant was aspirated and 150 μl of DMSO was added to each well to dissolve formazan crystals. The absorbance of each well was read at 540 nm using Synergy HT micro plate reader. The protective effect of the SEQ ID NO: 1 on survival of SH-SY5Y cells against MPP+ iodide induced damage was determined as: The viability of cells was determined as:
Where, the percentage cytotoxicity corresponding to each treatment was calculated as follows:
[formula] • X=Absorbance of cells treated with MPP+ iodide/recombinant lectin having SEQ ID NO: 1+MPP+Iodide • R=Absorbance of Control cells (Untreated) • Percentage protection was calculated as:
[(Absorbance of SEQ ID NO:1+MPP+Iodide)−(Absorbance of MPP+Iodide)/(Absorbance of Untreated)−(Absorbance of MPP+Iodide alone)]*100

SH-SY5Y neuronal cells [2] = assay: Sub (G0/G1) cell population by PI cell cycle assay against MPP+ iodide damage; format: cell-based, human; conditions: MPP + Iodide (2 mM); for % Decrease in Apoptotic cells (wrt MPP + iodide): SubG0/G1
Protocol: After incubation as in Example 2a and 2b, cells were harvested by trypsinization and processed for Cell cycle assay as follows: Cell cycle reagent contains PI stain, which stains DNA of cells in different phases of cell cycle; Sub (G0/G1), G1, S, G2 and M. Cells in Sub (G0/G1) phase correspond to apoptotic cells.
Cells were gently harvested into pre-labelled centrifuge tubes and centrifuged at 450 g for 5 min, RT (low brake). The supernatants were removed carefully and discarded. 1 ml of 1×PBS was added to the pellet and resuspended gently to make homogenous suspension. Cells were centrifuged at 450 g for 5 min, RT (low brake). The supernatant was carefully removed leaving behind approximately 100 μl of PBS. Cells were resuspended gently yet thoroughly in residual PBS. The cells were fixed by adding Ice-cold 70% ethanol (100 μl) added dropwise into cells in each tube while vortexing at low speed Cells were stored at 4° C. for 24 h prior to staining.
Ethanol fixed cells were centrifuged at 450 g for 5 min, RT (low brake) the supernatant was carefully removed (not to touch the pellet) and discarded. 1 ml of 1×PBS was added into pellet and resuspended gently. Cells were incubated for 1 minute at RT. Cells were centrifuged at 450 g for 5 min, RT (low brake). (washing step) The supernatant was removed carefully leaving behind approx. 20 μl-50 μl of PBS. 200 μl of Cell Cycle reagent was added into each tube. Cells were resuspended gently and mixed. Cells were incubated for 30 min, RT, Dark. The stained samples were transferred into 96-well plates and acquired on flow cytometer (Guava technologies). Percentage of cells in Sub (G0/G1) phase were determined.
Percent inhibition in apoptotic cells=[(% Sub(G0/G1)cells in MPP+iodide alone) −(% Sub(G0/G1)cells in SEQ ID NO:1+MPP+iodide)/% Sub(G0/G1)cells in MPP+iodide alone]*100

SH-SY5Y neuronal cells [3] = assay: Mitochondrial membrane potential against MPP+ iodide damage, JC-1 assay; format: cell-based, human; conditions: MPP+ iodide 1 mM; for Mitochondrial membrane potential: red/green fluorescence ratio
Protocol: The plated cells were incubated overnight in 5% CO2 incubator at 37° C. After 24 h, cells were treated with concentrations of recombinant lectin protein having SEQ ID NO: 1 ranging from 1 μg/ml-50 μg/ml for 24 h. After 24 h of treatment, cells were exposed to damage (MPP+ iodide 1 mM) for 24 h. […] Untreated cells were included as control. Cells treated with Deprenyl served as positive control. After MPP+ iodide exposure, the protective effect of recombinant lectin protein having SEQ ID NO: 1 on mitochondrial membrane potential was assessed by JC-1 assay as follows; after incubation, the supernatants were discarded and 100 μl of JC1-dye solution (prepared by diluting 1 mM DMSO stock in to 10 μM in 1×PBS) was added to each well. The cells were then incubated with the dye in CO2 incubator at 37° C. for 15 min. After 15 min of incubation, the supernatant was removed, and the cells were washed twice with 1×PBS (phosphate buffer saline). 100 μl of 1×PBS was finally added to each well. Red fluorescence (excitation 550 nm, emission 600 nm) and green fluorescence (excitation 485 nm, emission 535 nm) were measured using Biotek Synergy HT plate reader. The mitochondrial membrane potential (Δψm) was calculated as the ratio of intensity of red fluorescence to intensity of green fluorescence described as follows: • Δψm=Intensity of red fluorescence/Intensity of green fluorescence • The percentage increase/restoration in Mitochondrial Membrane Potential against MPP+ iodide damage was calculated as:
[formula] • Where X=Δψm corresponding to SEQ ID NO: 1+ MPP+ iodide treated cells • R=Δψm corresponding to control cells (MPP+ iodide damage alone)

## C#CCN(C)[C@H](C)Cc1ccccc1 [Deprenyl, reference compound]
SH-SY5Y neuronal cells [1]; 1 μM
  Percentage Protection: 41.5%
SH-SY5Y neuronal cells [1]; 10 μM
  Percentage Protection: 49%
SH-SY5Y neuronal cells [1]; 25 μM
  Percentage Protection: 75.6%
SH-SY5Y neuronal cells [1]; 50 μM
  Percentage Protection: 74.7%
SH-SY5Y neuronal cells [1]; 100 μM
  Percentage Protection: 67.5%
SH-SY5Y neuronal cells [2]; 10 μM
  % Apoptotic cells (SubG0/G1): 2.9%
  % Decrease in Apoptotic cells (wrt MPP + iodide): 12.8%
SH-SY5Y neuronal cells [2]; 25 μM
  % Apoptotic cells (SubG0/G1): 2.4%
  % Decrease in Apoptotic cells (wrt MPP + iodide): 28.3%
SH-SY5Y neuronal cells [2]; 100 μM
  % Apoptotic cells (SubG0/G1): 2%
  % Decrease in Apoptotic cells (wrt MPP + iodide): 42%
SH-SY5Y neuronal cells [3]; 1 μM
  % Increase in Mitochondrial potential (w.r.t. control): 58.2%
  Mitochondrial membrane potential: 2.9
SH-SY5Y neuronal cells [3]; 10 μM
  % Increase in Mitochondrial potential (w.r.t. control): 67.9%
  Mitochondrial membrane potential: 3.1
SH-SY5Y neuronal cells [3]; 25 μM
  % Increase in Mitochondrial potential (w.r.t. control): 95.3%
  Mitochondrial membrane potential: 3.6
SH-SY5Y neuronal cells [3]; 50 μM
  % Increase in Mitochondrial potential (w.r.t. control): 79.6%
  Mitochondrial membrane potential: 3.3
SH-SY5Y neuronal cells [3]; 100 μM
  % Increase in Mitochondrial potential (w.r.t. control): 39.9%
  Mitochondrial membrane potential: 2.6
